Test results reported in ChEMBL document CHEMBL1201862, “PubChem BioAssay data set” (2004).
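Assay format: 96-well plates, 48-hour exposure. Abbreviation: GI50, concentration required for 50% inhibition of growth.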 Calls of active or inactive are those of the source. No stated cut-off is given here; in the data, active = GI50 up to about 1.1 µM and inactive = higher.

Legend:
Assay in all cases: DTP human tumour cell line panel, 48 h
TK-10 = system: TK-10
OVCAR-8 = system: OVCAR-8
KM-20L2 = system: KM-20L2
LOX IMVI = system: LOX IMVI
SF-268 = system: SF-268
IGROV-1 = system: IGROV-1
UACC-62 = system: UACC-62
K562 = system: K562
NCI-H522 = system: NCI-H522
SK-OV-3 = system: SK-OV-3
SF-539 = system: SF-539
CCRF-CEM = system: CCRF-CEM
SK-MEL-28 = system: SK-MEL-28
OVCAR-3 = system: OVCAR-3
HL-60 = system: HL-60
HCT-15 = system: HCT-15
ACHN = system: ACHN

SMILES	GI50 (TK-10)	GI50 (OVCAR-8)	GI50 (KM-20L2)	GI50 (LOX IMVI)	GI50 (SF-268)	GI50 (IGROV-1)	GI50 (UACC-62)	GI50 (K562)	GI50 (NCI-H522)	GI50 (SK-OV-3)	GI50 (SF-539)	GI50 (CCRF-CEM)	GI50 (SK-MEL-28)	GI50 (OVCAR-3)	GI50 (HL-60)	GI50 (HCT-15)	GI50 (ACHN)
CC1CC#CCOC(=O)CCCC1=O (stereo unspecified)	> 100 µM (inactive)	> 100 µM (inactive)	> 100 µM (inactive)	> 100 µM (inactive)	> 100 µM (inactive)	> 100 µM (inactive)	> 100 µM (inactive)	> 100 µM (inactive)	> 100 µM (inactive)	> 100 µM (inactive)	> 100 µM (inactive)	> 100 µM (inactive)	> 100 µM (inactive)	> 100 µM (inactive)	> 100 µM (inactive)		
CCn1c(=O)nc2n(-c3ccc(SC)cc3)c3ccccc3nc-2c1=O	> 100 µM (inactive)	> 100 µM (inactive)	40.5 µM (inactive)		79.8 µM (inactive)	> 100 µM (inactive)	50.9 µM (inactive)	> 100 µM (inactive)	> 100 µM (inactive)	> 100 µM (inactive)	54 µM (inactive)	> 100 µM (inactive)	> 100 µM (inactive)	24.6 µM (inactive)	35.7 µM (inactive)	> 100 µM	1.87 µM (inactive)
O=P1(c2ccccc2)CCCCC1	> 100 µM (inactive)	> 100 µM (inactive)	> 100 µM (inactive)	> 100 µM (inactive)		> 100 µM (inactive)	> 100 µM (inactive)	> 100 µM (inactive)	> 10 µM (inactive)	> 100 µM (inactive)	> 100 µM (inactive)	> 100 µM (inactive)	> 100 µM (inactive)	> 100 µM (inactive)	> 100 µM (inactive)	> 100 µM	> 100 µM (inactive)
CC(=O)OC1(C)C(=O)OC1(C)C(C)=O (stereo unspecified)	> 100 µM (inactive)	> 100 µM (inactive)	> 100 µM (inactive)	> 100 µM (inactive)	> 100 µM (inactive)	> 100 µM (inactive)	> 100 µM (inactive)	> 100 µM (inactive)	> 100 µM (inactive)	> 100 µM (inactive)	> 100 µM (inactive)	> 100 µM (inactive)	> 100 µM (inactive)	> 100 µM (inactive)	> 100 µM (inactive)	> 100 µM	> 100 µM (inactive)
Cc1cccc(O)c(=O)c1	29.2 µM (inactive)	19.1 µM (inactive)	22.8 µM (inactive)	7.03 µM (inactive)	21.2 µM (inactive)	37.4 µM (inactive)	11.4 µM (inactive)		6.79 µM (inactive)	> 100 µM (inactive)	29.6 µM (inactive)	3.48 µM (inactive)	49.4 µM (inactive)	11.6 µM (inactive)	3.44 µM (inactive)	8.3 µM	31.7 µM (inactive)
CS(=O)(=O)NNS(=O)(=O)c1ccc(Br)cc1	> 100 µM (inactive)	> 100 µM (inactive)	> 100 µM (inactive)	> 100 µM (inactive)	> 100 µM (inactive)	> 100 µM (inactive)	> 100 µM (inactive)	> 100 µM (inactive)	> 100 µM (inactive)	> 100 µM (inactive)	> 100 µM (inactive)	> 100 µM (inactive)	> 100 µM (inactive)		> 100 µM (inactive)	> 100 µM	> 100 µM (inactive)
Cc1ccc2nc3c(Cl)cc(=O)cc-3sc2c1	28.1 µM (inactive)	21.2 µM (inactive)	> 10 µM (inactive)		23.6 µM (inactive)	19.4 µM (inactive)	15.9 µM (inactive)	17.6 µM (inactive)	16.7 µM (inactive)	> 10 µM (inactive)	3.38 µM (inactive)	1.96 µM (inactive)	35 µM (inactive)	3 µM (inactive)	5.77 µM (inactive)	17.5 µM	23.3 µM (inactive)
CCOC(=O)c1ccc(-n2c(SCC)nc3sc(C)c(C)c3c2=O)cc1	> 100 µM (inactive)	68.7 µM (inactive)	> 100 µM (inactive)	> 100 µM (inactive)	> 100 µM (inactive)	> 100 µM (inactive)	> 100 µM (inactive)	> 100 µM (inactive)	> 100 µM (inactive)	> 100 µM (inactive)	> 100 µM (inactive)	> 100 µM (inactive)	> 100 µM (inactive)	40.6 µM (inactive)	> 100 µM (inactive)	> 100 µM	> 100 µM (inactive)
CC1(C)CCCC2(C)[C@@H]1CC[C@@]13CC(=O)[C@@](C)(CC[C@@H]21)C3 (stereo partly specified)	> 100 µM (inactive)	85.7 µM (inactive)	72.3 µM (inactive)	39.4 µM (inactive)	95.7 µM (inactive)	> 100 µM (inactive)	> 100 µM (inactive)	> 100 µM (inactive)	20.9 µM (inactive)	> 100 µM (inactive)	> 100 µM (inactive)	> 100 µM (inactive)	> 100 µM (inactive)	> 100 µM (inactive)	52.4 µM (inactive)	97.5 µM	87.3 µM (inactive)
